Measured values: the NIST ThermoML archive (doi:10.1021/je800335v)

Legend:
[1] = molar heat capacity at constant pressure; conditions: 101.33 kPa, Liquid, Small sample (50 mg) DSC
[2] = molar heat capacity at constant pressure; xn = mol fraction of the nth substance listed; conditions: 298 K, 101 kPa, Liquid, Small sample (50 mg) DSC

CCCC[N+]1(C)CCCC1.FC(F)(F)C(F)(F)[P-](F)(F)(F)(C(F)(F)C(F)(F)F)C(F)(F)C(F)(F)F
[1]
Conditions	molar heat capacity at constant pressure [J/K/mol]
293 K	767
298 K	769
303 K	773
308 K	776
313 K	781
318 K	785
323 K	788
328 K	791
333 K	796
338 K	799
343 K	803
348 K	806
353 K	809
358 K	812

CCCCCCCCCCCCCC[P+](CCCCCC)(CCCCCC)CCCCCC.O=S(=O)([N-]S(=O)(=O)C(F)(F)F)C(F)(F)F
[1]
Conditions	molar heat capacity at constant pressure [J/K/mol]
293 K	1366
298 K	1366
303 K	1368
308 K	1372
313 K	1379
318 K	1384
323 K	1389
328 K	1389
333 K	1395
338 K	1397
343 K	1402
348 K	1405
353 K	1409
358 K	1413

CCCCn1cc[n+](C)c1.O=S(=O)([O-])C(F)(F)F [1-butyl-3-methylimidazolium trifluoromethanesulfonate]
[1]
Conditions	molar heat capacity at constant pressure [J/K/mol]
293 K	455
298 K	457
303 K	459
308 K	461
313 K	465
318 K	469
323 K	473
328 K	477
333 K	481
338 K	486
343 K	490
348 K	495
353 K	500
358 K	504

CCOS(=O)(=O)[O-].CCn1cc[n+](C)c1 [1-ethyl-3-methylimidazolium ethyl sulfate]
[1]
Conditions	molar heat capacity at constant pressure [J/K/mol]
293 K	388
298 K	389
303 K	391
308 K	394
313 K	398
318 K	402
323 K	406
328 K	410
333 K	415
338 K	420
343 K	427
348 K	433
353 K	440
358 K	447

CCCC[n+]1ccn(C)c1.O=S(=O)([N-]S(=O)(=O)C(F)(F)F)C(F)(F)F + CCCCn1cc[n+](C)c1.[Cl-]
[2]
Conditions	molar heat capacity at constant pressure [J/K/mol]
x2 = 0.0919	549
x2 = 0.2394	515
x2 = 0.4129	468
x2 = 0.5832	420

CCCCn1cc[n+](C)c1.O=S(=O)([O-])C(F)(F)F [1-butyl-3-methylimidazolium trifluoromethanesulfonate] + O
[2]
Conditions	molar heat capacity at constant pressure [J/K/mol]
x2 = 0.0108	448
x2 = 0.137	401
x2 = 0.3379	325
x2 = 0.5215	257

CCCCCCCCn1cc[n+](C)c1.O=S(=O)([N-]S(=O)(=O)C(F)(F)F)C(F)(F)F
[1]
Conditions	molar heat capacity at constant pressure [J/K/mol]
293 K	724
298 K	733
303 K	741
308 K	748
313 K	756
318 K	765
323 K	773
328 K	779
333 K	788
338 K	795
343 K	803
348 K	810
353 K	817
358 K	825

CCCCCC[n+]1ccn(C)c1.O=S(=O)([N-]S(=O)(=O)C(F)(F)F)C(F)(F)F
[1]
Conditions	molar heat capacity at constant pressure [J/K/mol]
293 K	669
298 K	667
303 K	667
308 K	668
313 K	671
318 K	673
323 K	675
328 K	676
333 K	679
338 K	680
343 K	683
348 K	685
353 K	687
358 K	689

CCCC[n+]1ccn(C)c1.O=S(=O)([N-]S(=O)(=O)C(F)(F)F)C(F)(F)F
[1]
Conditions	molar heat capacity at constant pressure [J/K/mol]
293 K	595
298 K	599
303 K	603
308 K	607
313 K	612
318 K	617
323 K	621
328 K	624
333 K	628
338 K	631
343 K	634
348 K	636
353 K	639
358 K	641

CCCC[N+]1(C)CCCC1.O=S(=O)([N-]S(=O)(=O)C(F)(F)F)C(F)(F)F
[1]
Conditions	molar heat capacity at constant pressure [J/K/mol]
293 K	630
298 K	629
303 K	632
308 K	639
313 K	644
318 K	650
323 K	654
328 K	656
333 K	659
338 K	661
343 K	660
348 K	659
353 K	658

CCn1cc[n+](C)c1.O=S(=O)([N-]S(=O)(=O)C(F)(F)F)C(F)(F)F
[1]
Conditions	molar heat capacity at constant pressure [J/K/mol]
293 K	523
298 K	525
303 K	527
308 K	529
313 K	533
318 K	535
323 K	538
328 K	539
333 K	542
338 K	545
343 K	547
348 K	548
353 K	550
358 K	551
